Results reported in patent US20150344427A1 (EPIZYME, INC., priority 2012, published 2015).

Tests used:
[1] = target: T1, wild-type EZH2 (PRC2 enzyme) (Homo sapiens, UniProt Q15910); assay: PRC2 enzyme assay on peptide substrate, wild-type EZH2; type: biochemical; details: wild-type PRC2 enzyme 4 nM, H3K27me0 peptide, 3H-SAM Flashplate; read-out: WT EZH2 IC50
T1 construct: made in house; host or cells: Spodoptera frugiperda (sf9) cells, baculovirus
Source text: (§1) General Materials. S-adenosylmethionine (SAM), S-adenosylhomocyteine (SAH), bicine, KCl, Tween20, dimethylsulfoxide (DMSO) and bovine skin gelatin (BSG) were purchased from Sigma-Aldrich at the highest level of purity possible. Dithiothreitol (DTT) was purchased from EMD. ^3H-SAM was purchased from American Radiolabeled Chemicals with a specific activity of 80 Ci/mmol. 384-well streptavidin Flashplates were purchased from PerkinElmer.
(§2) Peptides representative of human histone H3 residues 21-44 containing either an unmodified lysine 27 (H3K27me0) or dimethylated lysine 27 (H3K27me2) were synthesized with a C-terminal G(K-biotin) linker-affinity tag motif and a C-terminal amide cap by 21st Century Biochemicals. […] The sequences are listed below.
(§3) Human PRC2 enzymes were purified as 4-component enzyme complexes co-expressed in Spodoptera frugiperda (sf9) cells using a baculovirus expression system. […] The EED subunit contained an N-terminal FLAG tag that was used to purify the entire 4-component complex from sf9 cell lysates.
(§4) The assays were all performed in a buffer consisting of 20 mM bicine (pH=7.6), 0.5 mM DTT, 0.005% BSG and 0.002% Tween20, prepared on the day of use. Compounds in 100% DMSO (1 μL) were spotted into polypropylene 384-well V-bottom plates (Greiner) using a Platemate 2×3 outfitted with a 384-channel pipet head (Thermo). DMSO (1 μL) was added to columns 11, 12, 23, 24, rows A-H for the maximum signal control, and SAH, a known product and inhibitor of PRC2 (1 μL) was added to columns 11,12, 23, 24, rows I-P for the minimum signal control. A cocktail (40 μL) containing the wild-type PRC2 enzyme and H3K27me0 peptide or any of the Y641 mutant enzymes and H3K27me2 peptide was added by Multidrop Combi (Thermo). The compounds were allowed to incubate with PRC2 for 30 min at 25° C., then a cocktail (10 μL) containing a mixture of non-radioactive and ^3H-SAM was added to initiate the reaction (final volume=51 μL). In all cases, the final concentrations were as follows: wild-type or mutant PRC2 enzyme was 4 nM, SAH in the minimum signal control wells was 1 mM and the DMSO concentration was 1%. The assays were stopped by the addition of non-radioactive SAM (10 μL) to a final concentration of 600 μM, which dilutes the ^3H-SAM to a level where its incorporation into the peptide substrate is no longer detectable. 50 μL of the reaction in the 384-well polypropylene plate was then transferred to a 384-well Flashplate and the biotinylated peptides were allowed to bind to the streptavidin surface for at least 1 h before being washed three times with 0.1% Tween20 in a Biotek ELx405 plate washer. The plates were then read in a PerkinElmer TopCount platereader to measure the quantity of ^3H-labeled peptide bound to the Flashplate surface, measured as disintegrations per minute (dpm) or alternatively, referred to as counts per minute (cpm).
(§5) Where dpm=disintegrations per minute, cmpd=signal in assay well, and min and max are the respective minimum and maximum signal controls.
(§6) Where top and bottom are the normally allowed to float, but may be fixed at 100 or 0 respectively in a 3-parameter fit. The Hill Coefficient normally allowed to float but may also be fixed at 1 in a 3-parameter fit. Y is the % inhibition and X is the compound concentration.

WSU-DLCL2 cells = assay: Cell Proliferation Analysis, WSU-DLCL2; type: cell-based; details: Homo sapiens, WSUDLCL2, 144 h, 6 days, Cell Titer Glo
Source text: WSU-DLCL2 suspension cells were purchased from DSMZ (German Collection of Microorganisms and Cell Cultures, Braunschweig, Germany). RPMI/Glutamax Medium, Penicillin-Streptomycin, Heat Inactivated Fetal Bovine Serum were purchased from Life Technologies, Grand Island, N.Y., USA. V-bottom polypropylene 384-well plates were purchased from Greiner Bio-One, Monroe, N.C., USA. Cell culture 384-well white opaque plates were purchased from Perkin Elmer, Waltham, Mass., USA. Cell-Titer Glo® was purchased from Promega Corporation, Madison, Wis., USA. SpectraMax M5 plate reader was purchased from Molecular Devices LLC, Sunnyvale, Calif., USA.
WSU-DLCL2 suspension cells were maintained in growth medium (RPMI 1640 supplemented with 10% v/v heat inactivated fetal bovine serum and cultured at 37° C. under 5% CO2. Under assay conditions, cells were incubated in Assay Medium (RPMI 1640 supplemented with 20% v/v heat inactivated fetal bovine serum and 100 units/mL penicillin-streptomycin) at 37° C. under 5% CO2.
For the assessment of the effect of compounds on the proliferation of the WSU-DLCL2 cell line, exponentially growing cells were plated in 384-well white opaque plates at a density of 1250 cell/ml in a final volume of 50 μl of assay medium. A compound source plate was prepared by performing triplicate nine-point 3-fold serial dilutions in DMSO, beginning at 10 mM (final top concentration of compound in the assay was 20 μM and the DMSO was 0.2%). A 100 nL aliquot from the compound stock plate was added to its respective well in the cell plate. […] After addition of compounds, assay plates were incubated for 6 days at 37° C., 5% CO2, relative humidity >90% for 6 days. Cell viability was measured by quantization of ATP present in the cell cultures, adding 35 μl of Cell Titer Glo® reagent to the cell plates. Luminescence was read in the SpectraMax M5. The concentration inhibiting cell viability by 50% was determined using a 4-parametric fit of the normalized dose response curves.

[2] = target: T2, EZH2 Y641F mutant (PRC2 enzyme) (Homo sapiens, UniProt Q15910, Y641F); assay: PRC2 enzyme assay on peptide substrate, EZH2 Y641F mutant; type: biochemical; details: Y641F mutant PRC2 enzyme 4 nM, H3K27me2 peptide, 3H-SAM Flashplate
T2 construct: made in house; host or cells: Spodoptera frugiperda (sf9) cells, baculovirus
Source text: as §1, §2, §3, §4, §5, §6

T1 sequence (Q15910 whole entry): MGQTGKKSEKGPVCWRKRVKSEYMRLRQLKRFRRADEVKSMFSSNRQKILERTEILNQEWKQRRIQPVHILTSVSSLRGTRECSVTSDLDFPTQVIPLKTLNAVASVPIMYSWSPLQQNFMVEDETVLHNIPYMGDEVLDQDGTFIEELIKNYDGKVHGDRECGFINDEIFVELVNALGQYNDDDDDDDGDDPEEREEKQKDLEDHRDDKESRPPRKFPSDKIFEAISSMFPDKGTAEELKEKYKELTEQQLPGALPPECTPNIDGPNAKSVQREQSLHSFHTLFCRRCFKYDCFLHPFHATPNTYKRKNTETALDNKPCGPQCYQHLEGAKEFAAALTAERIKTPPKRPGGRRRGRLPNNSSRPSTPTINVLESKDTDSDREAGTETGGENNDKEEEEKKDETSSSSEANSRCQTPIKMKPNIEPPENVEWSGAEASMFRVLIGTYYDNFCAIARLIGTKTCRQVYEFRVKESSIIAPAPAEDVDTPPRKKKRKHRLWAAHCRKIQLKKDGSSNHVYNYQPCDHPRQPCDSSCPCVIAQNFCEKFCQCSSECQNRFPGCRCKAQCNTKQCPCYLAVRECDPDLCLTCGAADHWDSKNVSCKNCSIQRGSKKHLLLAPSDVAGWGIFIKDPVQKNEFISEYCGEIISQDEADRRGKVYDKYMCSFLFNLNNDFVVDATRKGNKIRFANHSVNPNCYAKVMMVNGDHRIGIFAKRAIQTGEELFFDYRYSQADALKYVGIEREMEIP
T1 sequence (O75530 whole entry partner): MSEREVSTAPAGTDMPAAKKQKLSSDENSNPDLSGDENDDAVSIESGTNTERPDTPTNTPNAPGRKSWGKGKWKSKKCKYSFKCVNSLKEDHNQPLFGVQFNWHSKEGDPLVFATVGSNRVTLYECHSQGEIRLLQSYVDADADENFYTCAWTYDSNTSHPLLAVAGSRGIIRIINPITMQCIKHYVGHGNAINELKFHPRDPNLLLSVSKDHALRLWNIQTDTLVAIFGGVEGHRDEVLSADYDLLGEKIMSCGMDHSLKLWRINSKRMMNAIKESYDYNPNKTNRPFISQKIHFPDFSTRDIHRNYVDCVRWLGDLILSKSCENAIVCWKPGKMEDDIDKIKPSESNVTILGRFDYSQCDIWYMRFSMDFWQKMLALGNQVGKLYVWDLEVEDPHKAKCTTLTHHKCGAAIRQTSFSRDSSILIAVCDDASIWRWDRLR
T1 sequence (Q15022 whole entry partner): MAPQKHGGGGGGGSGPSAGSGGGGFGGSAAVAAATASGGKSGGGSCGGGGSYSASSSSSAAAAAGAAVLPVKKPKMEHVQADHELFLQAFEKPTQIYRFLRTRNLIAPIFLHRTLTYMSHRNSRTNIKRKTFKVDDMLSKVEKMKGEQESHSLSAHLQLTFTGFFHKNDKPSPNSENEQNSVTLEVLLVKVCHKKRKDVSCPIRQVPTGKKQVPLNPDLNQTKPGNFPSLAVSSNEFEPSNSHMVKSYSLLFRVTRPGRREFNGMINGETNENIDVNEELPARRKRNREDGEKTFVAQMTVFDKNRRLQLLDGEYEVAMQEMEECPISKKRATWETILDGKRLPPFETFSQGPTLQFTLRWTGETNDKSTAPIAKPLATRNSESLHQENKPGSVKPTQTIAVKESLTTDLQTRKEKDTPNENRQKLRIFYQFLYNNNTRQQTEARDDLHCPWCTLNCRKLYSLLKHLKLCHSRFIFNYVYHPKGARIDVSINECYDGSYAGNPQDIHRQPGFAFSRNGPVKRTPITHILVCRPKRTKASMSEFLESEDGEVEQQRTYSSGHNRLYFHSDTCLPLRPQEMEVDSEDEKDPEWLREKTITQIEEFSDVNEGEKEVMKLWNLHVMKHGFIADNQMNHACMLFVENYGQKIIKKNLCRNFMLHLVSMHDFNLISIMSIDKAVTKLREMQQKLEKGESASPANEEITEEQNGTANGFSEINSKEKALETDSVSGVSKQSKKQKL
T1 sequence (Q09028 whole entry partner): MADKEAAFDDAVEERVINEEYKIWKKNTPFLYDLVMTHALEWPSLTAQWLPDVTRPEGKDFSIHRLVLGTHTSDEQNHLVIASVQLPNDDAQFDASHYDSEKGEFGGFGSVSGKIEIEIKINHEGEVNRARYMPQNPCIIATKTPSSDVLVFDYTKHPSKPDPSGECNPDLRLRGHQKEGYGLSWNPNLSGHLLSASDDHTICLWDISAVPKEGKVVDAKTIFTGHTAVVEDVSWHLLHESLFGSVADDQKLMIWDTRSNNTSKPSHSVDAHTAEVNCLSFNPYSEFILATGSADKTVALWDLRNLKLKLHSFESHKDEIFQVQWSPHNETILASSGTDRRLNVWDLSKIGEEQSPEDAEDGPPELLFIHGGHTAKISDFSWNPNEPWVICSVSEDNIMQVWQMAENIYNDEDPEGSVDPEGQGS
T2 sequence (Q15910 whole entry Y641F): as the sequence (Q15910 whole entry) above, with Y641F counted along it
T2 sequence (O75530 whole entry partner): as the sequence (O75530 whole entry partner) above
T2 sequence (Q15022 whole entry partner): as the sequence (Q15022 whole entry partner) above
T2 sequence (Q09028 whole entry partner): as the sequence (Q09028 whole entry partner) above

Compound	IC50 [1] [nM]	IC50 (WSU-DLCL2 cells) [nM]	IC50 [2] [nM]
CCn1c(C)cc(=O)c(CNC(=O)c2cc(Cl)cc(N(CC)[C@H]3CC[C@H](N(C)C)CC3)c2C)c1C [Compound 87]	35400	3000	37400
CCN(c1cc(-c2ccc(COC)nc2)cc(C(=O)NCc2c(Cl)[nH]c(C)cc2=O)c1C)[C@H]1CC[C@H](N(C)C)CC1 [Compound 88]	40	5100	46
CCN(c1cc(Cl)cc(C(=O)NCc2c(C)[nH]c(C)cc2=O)c1C)[C@H]1CC[C@H](N(C)C)CC1 [Compound 1, 5-chloro-N-((2,6-dimethyl-4-oxo-1,4-dihydropyridin-3-yl)methyl)-3-(((trans)-4-(dimethylamino)cyclohexyl)(ethyl)amino)-2-methylbenzamide]	22 to 37	17100	40
CCN(c1cc(-c2cnc(C)cn2)cc(C(=O)NCc2c(Cl)[nH]c(C)cc2=O)c1C)[C@H]1CC[C@H](N(C)C)CC1 [Compound 91]	140	5400	49
CCN(c1cc(Cl)cc(C(=O)NCc2c(C)n(C)c(C)cc2=O)c1C)[C@H]1CC[C@H](N(C)C)CC1 [Compound 86]	> 50000	> 20000	> 50000
CCCN(c1cc(-c2ccc(OCCOC)cc2)cc(C(=O)NCc2c(C)[nH]c(C)cc2=O)c1C)[C@H]1CC[C@H](N(C)C)CC1 [Compound 94]	25	2900	7
CCN(c1cc(-c2cnn(C)c2)cc(C(=O)NCc2c(Cl)[nH]c(C)cc2=O)c1C)[C@H]1CC[C@H](N(C)C)CC1 [Compound 89]	270	11500	229
CCN(c1cc(-c2ccc(OCCOC)cc2)cc(C(=O)NCc2c(C)[nH]c(C)cc2=O)c1C)[C@H]1CC[C@H](N(C)C)CC1 [Compound 93]	5	1200	5
CCN(c1cc(-c2ccc(OCCOC)cc2)cc(C(=O)NCc2c(C)[nH]c(C)cc2=O)c1C)[C@H]1CC[C@H](N(C)CCOC)CC1 [Compound 100]	27	4200	18
CCN(c1cc(-c2ccc(OCCOC)cc2)cc(C(=O)NCc2c(Cl)[nH]c(C)cc2=O)c1C)[C@H]1CC[C@H](N(C)C)CC1 [Compound 92]	38	4400	23
CCN(c1cc(-c2ccc(C)nc2)cc(C(=O)NCc2c(Cl)[nH]c(C)cc2=O)c1C)[C@H]1CC[C@H](N(C)C)CC1 [Compound 90]	50	5300	40
